Experimental data published in US20200392158A1, “INHIBITORS OF LEUCINE RICH REPEAT KINASE 2” (GLAXOSMITHKLINE INTELLECTUAL PROPERTY DEVELOPMENT LIMITED, priority 2017, published 2020).
Counter-ions that a name gives are not always drawn.

Assays:
[1] = molecular target: T1, full length G2019 human LRRK2 (Homo sapiens, UniProt Q5S007, R50H); assay: Full length G2019 human LRRK2 inhibition mass spectrometry assay; assay type: biochemical; conditions: LRRKtide to phospho-LRRKtide conversion, RapidFire MS, 2 mM ATP
T1 construct: made in house; host or cells: HEK293 6E cells transduced with BacMam virus (virus generated in Sf9 cells)
Procedure, shortened: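 Inhibition taken as reduced LRRKtide phosphorylation, quantified by RapidFire-coupled triple-quadrupole MS as product/(product+substrate) peak area. Reaction: 2 mM ATP, 25 μM peptide, ~25 nM full-length G2019 Flag-LRRK2, Hepes pH 7.2 buffer, room temperature for 1 h. 11-point 1-in-4 dilutions from 100 μM; logistic fit gives IC50, reported as pIC50.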

[2] = molecular target: T2, LRRK2 kinase in SH-SY5Y cells over-expressing recombinant full length LRRK2 (Homo sapiens, UniProt Q5S007); assay: Recombinant cellular LRRK2 AlphaScreen assay (LRRK2 Ser935 phosphorylation); assay type: cell-based; conditions: 60 min
T2 construct: A BacMam virus expressing full length recombinant LRRK2 was purchased from Invitrogen; host or cells: SH-SY5Y human neuroblastoma cells transduced with BacMam LRRK2 virus
Procedure, shortened: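 Read-out is AlphaScreen of LRRK2 pSer935 over total LRRK2 in lysates of SH-SY5Y cells over-expressing full-length LRRK2 via BacMam (24 h transduction). Cells were exposed 60 min at 37 °C to an 11-point 1-in-4 dilution series starting at 10 uM; sigmoidal fit.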

T1 sequence (Q5S007 with tags, fused parts or gaps R50H): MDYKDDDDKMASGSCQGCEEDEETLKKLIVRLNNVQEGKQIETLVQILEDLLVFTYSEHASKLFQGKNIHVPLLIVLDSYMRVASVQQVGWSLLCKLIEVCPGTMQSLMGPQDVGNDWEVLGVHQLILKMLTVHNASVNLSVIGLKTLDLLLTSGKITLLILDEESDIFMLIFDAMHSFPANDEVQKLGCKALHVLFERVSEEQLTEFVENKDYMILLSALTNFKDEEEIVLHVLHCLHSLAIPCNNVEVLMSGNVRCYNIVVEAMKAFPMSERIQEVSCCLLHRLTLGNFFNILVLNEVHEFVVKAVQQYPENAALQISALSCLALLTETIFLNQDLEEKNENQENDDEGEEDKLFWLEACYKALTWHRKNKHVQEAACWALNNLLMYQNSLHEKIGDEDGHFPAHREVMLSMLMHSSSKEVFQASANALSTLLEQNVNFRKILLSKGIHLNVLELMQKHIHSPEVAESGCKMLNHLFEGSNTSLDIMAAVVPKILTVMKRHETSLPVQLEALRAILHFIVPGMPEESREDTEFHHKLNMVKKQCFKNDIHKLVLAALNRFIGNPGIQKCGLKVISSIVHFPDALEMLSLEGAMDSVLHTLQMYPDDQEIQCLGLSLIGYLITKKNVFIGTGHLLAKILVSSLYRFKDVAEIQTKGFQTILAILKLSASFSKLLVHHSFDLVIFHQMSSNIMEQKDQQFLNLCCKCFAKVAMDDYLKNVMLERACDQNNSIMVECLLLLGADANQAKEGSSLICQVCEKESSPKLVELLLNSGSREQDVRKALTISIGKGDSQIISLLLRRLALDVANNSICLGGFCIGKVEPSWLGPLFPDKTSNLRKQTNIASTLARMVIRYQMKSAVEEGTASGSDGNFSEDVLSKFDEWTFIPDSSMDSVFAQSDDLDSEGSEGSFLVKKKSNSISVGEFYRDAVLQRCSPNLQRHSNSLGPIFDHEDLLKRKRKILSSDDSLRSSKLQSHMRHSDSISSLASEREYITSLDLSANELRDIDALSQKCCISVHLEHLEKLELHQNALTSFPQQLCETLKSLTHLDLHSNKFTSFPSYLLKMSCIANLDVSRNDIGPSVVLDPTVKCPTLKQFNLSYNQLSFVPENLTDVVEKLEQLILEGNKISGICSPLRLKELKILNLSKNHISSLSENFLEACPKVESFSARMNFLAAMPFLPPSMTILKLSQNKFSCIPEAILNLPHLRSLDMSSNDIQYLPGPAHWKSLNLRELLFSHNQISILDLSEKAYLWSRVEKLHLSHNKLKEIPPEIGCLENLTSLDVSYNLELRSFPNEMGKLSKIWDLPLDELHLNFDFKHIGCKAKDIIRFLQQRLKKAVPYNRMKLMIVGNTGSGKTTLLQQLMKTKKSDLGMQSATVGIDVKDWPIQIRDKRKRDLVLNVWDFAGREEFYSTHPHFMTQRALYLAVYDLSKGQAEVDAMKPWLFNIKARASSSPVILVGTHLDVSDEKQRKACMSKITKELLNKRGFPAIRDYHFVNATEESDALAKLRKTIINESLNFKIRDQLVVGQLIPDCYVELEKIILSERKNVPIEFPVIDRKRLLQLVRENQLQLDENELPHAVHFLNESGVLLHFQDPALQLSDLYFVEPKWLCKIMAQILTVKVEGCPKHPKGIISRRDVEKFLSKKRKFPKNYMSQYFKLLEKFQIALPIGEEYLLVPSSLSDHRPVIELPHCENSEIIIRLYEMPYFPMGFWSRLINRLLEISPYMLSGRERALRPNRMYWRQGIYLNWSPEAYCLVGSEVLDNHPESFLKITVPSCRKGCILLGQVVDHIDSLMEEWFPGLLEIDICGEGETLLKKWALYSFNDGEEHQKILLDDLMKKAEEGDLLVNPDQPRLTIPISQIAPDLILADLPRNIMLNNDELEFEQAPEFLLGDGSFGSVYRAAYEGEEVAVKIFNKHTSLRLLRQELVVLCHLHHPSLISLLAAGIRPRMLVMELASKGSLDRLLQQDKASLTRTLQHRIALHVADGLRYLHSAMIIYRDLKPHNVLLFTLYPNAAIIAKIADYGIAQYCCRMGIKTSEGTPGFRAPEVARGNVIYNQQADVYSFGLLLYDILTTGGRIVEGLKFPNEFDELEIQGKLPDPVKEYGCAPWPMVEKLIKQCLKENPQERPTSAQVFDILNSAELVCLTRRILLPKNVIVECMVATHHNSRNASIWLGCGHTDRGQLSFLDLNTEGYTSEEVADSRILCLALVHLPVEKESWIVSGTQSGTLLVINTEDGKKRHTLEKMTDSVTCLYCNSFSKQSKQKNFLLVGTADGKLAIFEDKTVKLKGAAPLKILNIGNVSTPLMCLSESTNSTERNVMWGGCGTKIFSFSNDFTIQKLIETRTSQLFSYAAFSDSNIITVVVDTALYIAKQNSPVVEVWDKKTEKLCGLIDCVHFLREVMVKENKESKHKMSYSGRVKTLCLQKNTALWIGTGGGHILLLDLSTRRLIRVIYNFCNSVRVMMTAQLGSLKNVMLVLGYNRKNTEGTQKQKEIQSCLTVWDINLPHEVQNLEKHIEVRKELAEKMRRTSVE
T2 sequence (Q5S007 whole entry): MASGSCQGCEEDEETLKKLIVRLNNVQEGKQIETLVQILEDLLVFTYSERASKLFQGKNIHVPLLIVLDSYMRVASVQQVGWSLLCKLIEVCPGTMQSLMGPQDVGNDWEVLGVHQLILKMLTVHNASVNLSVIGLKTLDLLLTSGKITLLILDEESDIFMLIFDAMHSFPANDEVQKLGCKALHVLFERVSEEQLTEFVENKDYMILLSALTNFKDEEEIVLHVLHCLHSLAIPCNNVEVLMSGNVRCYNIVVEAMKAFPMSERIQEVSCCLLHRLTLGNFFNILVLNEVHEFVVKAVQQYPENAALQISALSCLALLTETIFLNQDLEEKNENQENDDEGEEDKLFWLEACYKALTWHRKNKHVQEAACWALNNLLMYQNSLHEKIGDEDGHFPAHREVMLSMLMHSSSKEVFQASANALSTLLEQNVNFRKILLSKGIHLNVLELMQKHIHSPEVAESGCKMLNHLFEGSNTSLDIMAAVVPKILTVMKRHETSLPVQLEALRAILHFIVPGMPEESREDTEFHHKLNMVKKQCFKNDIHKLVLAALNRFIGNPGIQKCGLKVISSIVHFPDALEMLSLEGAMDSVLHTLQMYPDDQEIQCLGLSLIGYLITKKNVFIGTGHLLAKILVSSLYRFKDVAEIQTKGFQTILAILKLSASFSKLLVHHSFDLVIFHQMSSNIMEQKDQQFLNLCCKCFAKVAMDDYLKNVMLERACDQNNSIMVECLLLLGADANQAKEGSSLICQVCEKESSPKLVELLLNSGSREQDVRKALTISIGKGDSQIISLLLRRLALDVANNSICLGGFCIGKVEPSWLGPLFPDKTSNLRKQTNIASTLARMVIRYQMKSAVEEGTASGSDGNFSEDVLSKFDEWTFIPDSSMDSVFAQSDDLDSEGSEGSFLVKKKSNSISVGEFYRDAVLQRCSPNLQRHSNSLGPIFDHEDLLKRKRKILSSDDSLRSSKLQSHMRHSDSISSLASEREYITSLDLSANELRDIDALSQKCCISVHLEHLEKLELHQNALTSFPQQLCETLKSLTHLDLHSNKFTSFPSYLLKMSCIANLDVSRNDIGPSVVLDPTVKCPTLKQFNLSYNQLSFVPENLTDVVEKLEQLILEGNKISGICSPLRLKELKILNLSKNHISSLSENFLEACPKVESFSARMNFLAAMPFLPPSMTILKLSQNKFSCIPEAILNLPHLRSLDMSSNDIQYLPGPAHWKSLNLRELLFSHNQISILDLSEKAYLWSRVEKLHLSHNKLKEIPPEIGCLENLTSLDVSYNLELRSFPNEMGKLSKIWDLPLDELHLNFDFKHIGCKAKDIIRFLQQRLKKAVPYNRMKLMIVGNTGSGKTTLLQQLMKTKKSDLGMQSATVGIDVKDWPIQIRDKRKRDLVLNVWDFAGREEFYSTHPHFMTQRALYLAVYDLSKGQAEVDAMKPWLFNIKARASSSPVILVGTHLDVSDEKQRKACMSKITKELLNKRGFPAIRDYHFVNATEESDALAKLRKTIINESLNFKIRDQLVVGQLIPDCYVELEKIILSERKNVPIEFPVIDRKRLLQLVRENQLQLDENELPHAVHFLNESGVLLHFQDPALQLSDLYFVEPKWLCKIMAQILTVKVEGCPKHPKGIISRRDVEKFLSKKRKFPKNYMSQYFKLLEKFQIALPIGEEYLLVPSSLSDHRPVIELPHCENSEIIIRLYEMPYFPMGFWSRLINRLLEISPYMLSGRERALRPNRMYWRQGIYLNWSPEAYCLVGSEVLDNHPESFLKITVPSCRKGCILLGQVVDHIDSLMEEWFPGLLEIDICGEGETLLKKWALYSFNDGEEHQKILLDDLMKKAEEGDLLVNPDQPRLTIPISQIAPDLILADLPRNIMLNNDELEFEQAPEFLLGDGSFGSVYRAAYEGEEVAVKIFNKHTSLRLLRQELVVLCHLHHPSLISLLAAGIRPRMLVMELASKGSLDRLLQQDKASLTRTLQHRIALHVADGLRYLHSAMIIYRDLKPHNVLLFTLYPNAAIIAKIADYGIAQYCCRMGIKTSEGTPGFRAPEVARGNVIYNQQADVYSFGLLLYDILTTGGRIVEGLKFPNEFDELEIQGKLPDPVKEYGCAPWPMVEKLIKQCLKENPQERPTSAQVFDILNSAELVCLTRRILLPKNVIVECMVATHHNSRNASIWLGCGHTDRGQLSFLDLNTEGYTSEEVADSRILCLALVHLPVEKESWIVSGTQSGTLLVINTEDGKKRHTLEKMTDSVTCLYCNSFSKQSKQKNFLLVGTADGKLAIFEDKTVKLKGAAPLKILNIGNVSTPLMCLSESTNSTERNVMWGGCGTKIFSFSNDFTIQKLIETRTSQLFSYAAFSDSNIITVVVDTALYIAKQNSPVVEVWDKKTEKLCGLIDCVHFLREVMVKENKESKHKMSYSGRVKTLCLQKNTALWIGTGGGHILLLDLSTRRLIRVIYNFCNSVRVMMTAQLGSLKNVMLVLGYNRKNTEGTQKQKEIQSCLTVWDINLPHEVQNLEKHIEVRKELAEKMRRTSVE

Compound | IC50 [1] [nM] | IC50 [2] [nM]
Cc1c2c(nn1C1COCCC1(F)F)OCCCNc1nc(ncc1Cl)N2 (racemic) [E364, 14-Chloro-5-(4,4-difluorooxan-3-yl)-4-methyl-8-oxa-2,5,6,12,16,17-hexaazatricyclo[11.3.1.0^3,7]heptadeca-1(16),3,6,13(17),14-pentaene] | ≤ 100 | ≤ 100
COC1CNc2nc(ncc2Cl)Nc2c(nn(C3CCOCC3)c2C)OC1 (single isomer, unassigned) [E3, 14-chloro-10-methoxy-4-methyl-5-(oxan-4-yl)-8-oxa-2,5,6,12,16,17-hexaazatricyclo [11.3.1.0^3,7]heptadeca-1(16),3,6,13(17),14-pentaene] | ≤ 100 | ≤ 100
CCC1CCOc2nn(C3CCOCC3)c(C)c2Nc2ncc(Cl)c(n2)N1 (single isomer, unassigned) [E20, 14-chloro-11-ethyl-4-methyl-5-(oxan-4-yl)-8-oxa-2,5,6,12,16,17-hexaazatricyclo[11.3.1.0^3,7]heptadeca-1(16),3,6,13(17),14-pentaene] | ≤ 100 | ≤ 100
Cc1c2c(nn1C1CCOCC1)OCCC(C)Nc1nc(ncc1Br)N2 (single isomer, unassigned) [E30, 14-bromo-4,11-dimethyl-5-(oxan-4-yl)-8-oxa-2,5,6,12,16,17-hexaaza tricyclo[11.3.1.0^3,7]heptadeca-1(16),3,6,13(17),14-pentaene] | ≤ 100 | ≤ 100
Cc1c2c(nn1C1CCOCC1)OCC(C)C(C)Nc1nc(ncc1Cl)N2 (single isomer, unassigned) [E32, 14-chloro-4,10,11-trimethyl-5-(oxan-4-yl)-8-oxa-2,5,6,12,16,17-hexaazatricyclo [11.3.1.0^3,7]heptadeca-1(16),3,6,13(17),14-pentaene] | ≤ 100 | ≤ 100
COCC1CCOc2nn(C3CCOCC3)c(C)c2Nc2ncc(Cl)c(n2)N1 (single isomer, unassigned) [E35, 14-chloro-11-(methoxymethyl)-4-methyl-5-(oxan-4-yl)-8-oxa-2,5,6, 12,16,17-hexaazatricyclo-[11.3.1.0^3,7]heptadeca-1(16),3,6,13(17),14-pentaene] | ≤ 100 | ≤ 100
Cc1c2c(nn1C1CCC(N3C[C@H]4C[C@@H]3CO4)CC1)OCCCNc1nc(ncc1Cl)N2 (single isomer, unassigned) [E48] | ≤ 100 | ≤ 100
Cc1c2c(nn1C1CCOCC1)OCCC(CF)Nc1nc(ncc1Cl)N2 (single isomer, unassigned) [E54, 14-chloro-11-(fluoromethyl)-4-methyl-5-(oxan-4-yl)-8-oxa-2,5,6,12, 16,17-hexaazatricyclo[11.3.1.0^3,7]heptadeca-1(16),3,6,13(17),14-pentaene] | ≤ 100 | ≤ 100
Cc1c2c(nn1C1CCC(N3C[C@H]4C[C@@H]3CO4)CC1)OCCC(C)Nc1nc(ncc1Cl)N2 (single isomer, unassigned) [E57] | ≤ 100 | ≤ 100
Cc1c2c(nn1C1CCN(C3COC3)CC1F)OCCCNc1nc(ncc1Cl)N2 (single isomer, unassigned) [E61, trans-14-chloro-5-[3-fluoro-1-(oxetan-3-yl)piperidin-4-yl]-4-methyl-8-oxa-2,5,6,12,16,17-hexaazatricyclo[11.3.1.0^3,7]heptadeca-1(16),3,6,13(17),14-pentaene] | ≤ 100 | ≤ 100
Cc1c2c(nn1C1CCOCC1)OCC(F)C(C)Nc1nc(ncc1Cl)N2 (single isomer, unassigned) [E64, 14-Chloro-10-fluoro-4,11-dimethyl-5-(oxan-4-yl)-8-oxa-2,5,6,12, 16,17-hexaazatricyclo[11.3.1.0^3,7]heptadeca-1(16),3,6,13(17),14-pentaene] | ≤ 100 | ≤ 100
Cc1c2c(nn1C1CCCN(C3COC3)C1)OCC[C@@H](C)Nc1nc(ncc1Cl)N2 (single isomer, unassigned) [E67] | ≤ 100 | ≤ 100
COC1CNc2nc(ncc2Cl)Nc2c(nn(C3CCOCC3F)c2C)OC1 (single isomer, unassigned) [E70, 14-Chloro-5-(3-fluorooxan-4-yl)-10-methoxy-4-methyl-8-oxa-2,5,6,12,16,17-hexaaza tricyclo[11.3.1.0^3,7]heptadeca-1(16),3,6,13(17),14-pentaene] | ≤ 100 | ≤ 100
Cc1c2c(nn1C1CCOCC1)OCCC(C(F)F)Nc1nc(ncc1Cl)N2 (single isomer, unassigned) [E88, 14-chloro-11-(difluoromethyl)-4-methyl-5-(oxan-4-yl)-8-oxa-2,5,6, 12,16,17-hexaazatricyclo[11.3.1.0^3,7]heptadeca-1(16),3,6,13(17),14-pentaene] | ≤ 100 | ≤ 100
Cc1c2c(nn1C1CCC(O)CC1)OCCCNc1nc(ncc1Cl)N2 (single isomer, unassigned) [E90, 4-{14-chloro-4-methyl-8-oxa-2,5,6,12,16,17-hexaazatricyclo[11.3.1.0^3,7]heptadeca-1(16),3,6,13(17),14-pentaen-5-yl}cyclohexan-1-ol] | ≤ 100 | ≤ 100
Cc1c2c(nn1C1CCC(N3C[C@@H]4C[C@H]3CO4)CC1)OCCC(C)Nc1nc(ncc1Cl)N2 (single isomer, unassigned) [E104] | ≤ 100 | ≤ 100
COC1CNc2nc(ncc2C(F)(F)F)Nc2c(nn(C3CCOCC3)c2C)OC1 (single isomer, unassigned) [E121, 10-methoxy-4-methyl-5-(oxan-4-yl)-14-(trifluoromethyl)-8-oxa-2,5,6,12,16,17-hexaazatricyclo[11.3.1.0^3,7] heptadeca-1(16),3,6,13(17),14-pentaene] | ≤ 100 | ≤ 100
Cc1c2c(nn1C1CCOC1)OCCCNc1nc(ncc1Cl)N2 (single isomer, unassigned) [E123, 14-chloro-4-methyl-5-(oxolan-3-yl)-8-oxa-2,5,6,12,16,17-hexaazatricyclo[11.3.1.0^3,7]heptadeca-1(16),3,6,13(17), 14-pentaene] | ≤ 100 | ≤ 100
Cc1c2c(nn1C1CCOC1)OCCCNc1nc(ncc1C(F)(F)F)N2 (single isomer, unassigned) [E127, 4-methyl-5-(oxolan-3-yl)-14-(trifluoromethyl)-8-oxa-2,5,6,12,16,17-hexaazatricyclo[11.3.1.0^3,7]heptadeca-1(16),3,6,13(17),14-pentaene] | ≤ 100 | ≤ 100
Cc1c2c(nn1C1CCOCC1)OCC(C)CNc1nc(ncc1Cl)N2 (single isomer, unassigned) [E136, 14-chloro-4,10-dimethyl-5-(oxan-4-yl)-8-oxa-2,5,6,12,16,17-hexaazatricyclo[11.3.1.0^3,7]heptadeca-1(16),3,6,13(17),14-pentaene] | ≤ 100 | ≤ 100
Cc1c2c(nn1C1(C)CCOCC1)OCCCNc1nc(ncc1Cl)N2 [E436, 14-Chloro-4-methyl-5-(4-methyloxan-4-yl)-8-oxa-2,5,6,12,16,17-hexaazatricyclo[11.3.1.0^3,7]heptadeca-1(16),3,6,13(17),14-pentaene] | – | ≤ 100
Cc1c2c(nn1C1(C)CCOCC1)OCC[C@@H](C)Nc1nc(ncc1Cl)N2 [E437, (11R)-14-Chloro-4,11-dimethyl-5-(4-methyloxan-4-yl)-8-oxa-2,5,6,12,16,17-hexaazatricyclo[11.3.1.0^3,7]heptadeca-1(16),3,6,13(17),14-pentaene] | – | ≤ 100
N#Cc1cnc2nc1NCCCOc1nn(C3CCOCC3(F)F)c(Cl)c1N2 (stereo not drawn) [E438, 4-Chloro-5-(3,3-difluorooxan-4-yl)-8-oxa-2,5,6,12,16,17-hexaazatricyclo[11.3.1.0^3,7]heptadeca-1(16),3,6,13(17),14-pentaene-14-carbonitrile] | – | ≤ 100
C[C@@H]1CCOc2nn(C3CN(C4COCCC4(F)F)C3)c(Cl)c2Nc2ncc(Cl)c(n2)N1 (stereo partly drawn) [E440, (11R)-4,14-Dichloro-5-[1-(4,4-difluorooxan-3-yl)azetidin-3-yl]-11-methyl-8-oxa-2,5,6,12,16,17-hexaazatricyclo[11.3.1.0^3,7]heptadeca-1(16),3,6,13(17),14-pentaene, TFA salt] | – | ≤ 100
Cc1c2c(nn1C1CCOCC1)OCCCNc1nc(ncc1C(C)(C)C)N2 [E441, 14-tert-Butyl-4-methyl-5-(oxan-4-yl)-8-oxa-2,5,6,12,16,17-hexaazatricyclo[11.3.1.0^3,7]heptadeca-1(16),3,6,13(17),14-pentaene] | – | > 10000
Cc1c2c(nn1C1(C#N)CCOCC1)OCCCNc1nc(ncc1Cl)N2 [E450, 4-{14-chloro-4-methyl-8-oxa-2,5,6,12,16,17-hexaazatricyclo[11.3.1.0^3,7]heptadeca-1(17),3,6,13,15-pentaen-5-yl}oxane-4-carbonitrile] | – | ≤ 100
Cc1c2c(nn1C(C)(C)CO)OCCCNc1nc(ncc1Cl)N2 [E451, 2-{14-Chloro-4-methyl-8-oxa-2,5,6,12,16,17-hexaazatricyclo[11. 3.1.0^3,7]heptadecal 1(16),3,6,13(17),14-pentaen-5-yl}-2-methylpropan-1-ol] | – | ≤ 100
Cc1c2c(nn1C(C)(C)CO)OCC[C@@H](C)Nc1nc(ncc1Cl)N2 [E452, 2-[(11R)-14-Chloro-4,11-dimethyl-8-oxa-2,5,6,12,16,17-hexaazatricyclo[11.3.1.0^3,7]heptadeca-1(16),3,6,13(17),14-pentaen-5-yl]-2-methylpropan-1-ol] | – | ≤ 100
